{
  "source": "patent US20090197957A1",
  "about": "“Methods and compositions for the treatment of pain” (Nuon Therapeutics, Inc., priority 2005, published 2009)",
  "key": {"[1]": {"tested_on": "acetic acid-induced writhing", "assay": "Analgesia, acetic acid writhing in mice (Example 3)", "type": "in vivo, mouse", "conditions": "for No. of Writhing Average: group of 5 mice; for % Inhibition: relative to vehicle control; for No. of Writhing Individual: single mice", "experimental": "3-Hydroxyanthranilic acid was evaluated for possible analgesic activity in mouse acetic acid-induced pain response assay.\n3-Hydroxyanthranilic acid was purchased from Sigma (USA) by MDS Pharma Services-Taiwan Ltd. and administered orally at the doses of 400, 200 and 100 mg/kg for analgesia, acetic acid-induced writhing assay. 2% Tween 80 was used as the vehicle.\nMale CD-1 (Crl.) mice provided by BioLasco Taiwan (under Charles River Laboratories Technology Licensee) were used. Space allocation for 10 animals was 29×18×13 cm. All animals were maintained in a controlled temperature (23° C.-24° C.) and humidity (60%-70%) environment with 12 hours light dark cycles for at least one week in MDS Pharma Services—Taiwan Laboratory prior to use. Free access to standard lab chow for Mice (LabDiet Rodent Diet, PMI Nutrition International, USA) and tap water was granted. All aspects of this work including housing, experimentation and disposal of animals were performed in general accordance with the Guide for the Care and Use of Laboratory Animals (National Academy Press, Washington, D.C., 1996).\nTest substance was administered orally to groups of 5 CD-1 (Crl.) derived male or female mice weighing 24±2 g, 2 hour before injection of acetic acid (0.5%, 20 ml/kg IP). Reduction in the number of writhes by 50 percent or more (≧50%) per group of animals observed during the 5 to 10 minute period after acetic acid administration, relative to a vehicle-treated control group, indicates possible analgesic activity.\nTest substance was administered orally to groups of 5 mice 1 hour before injection of 0.5% Acetic Acid (20 ml/kg IP). The number of writhing per group of animals observed during the 5 to 10 minute period after acetic acid challenge was observed. Reduction in the number of writhing by 50 percent or more (≧50%) relative to the vehicle-treated control group indicates possible analgesic activity."}, "purified T cells": {"tested_on": "purified T cells", "assay": "T cell proliferation in vitro (anti-CD3/anti-CD28, 3H-thymidine incorporation)", "type": "cell-based", "conditions": "anti-CD3/anti-CD28 stimulation, 72 h; for IC50: T-cell, read-out: IC50 for inhibition of T cell proliferation; for T cell proliferation: varying doses", "experimental": "(§1) FIG. 7 is a graphical representation depicting that 3,4-DAA and 3-HAA inhibit B and T cell proliferation in vitro. Purified B and T cells were stimulated for 72 h with anti-CD40 (a), or anti-CD3/anti-CD28 (b) respectively, in the presence of varying doses of 3,4-DAA, or 3-HAA.\n(§2) A single cell suspension was prepared by pushing splenic tissue through a cell strainer, and erythrocytes were lysed using an ammonium chloride solution (Sigma, St Louis, Mo.). B cells were positively enriched by using anti-IgM microbeads (BD Pharmingen), and T cells were positively enriched using anti-CD4 MACS microbeads, according to the manufacturer's guidelines (Miltenyi Biotec, Bergisch Gladbach, Germany). Purity was assessed by flow cytometric analysis (B cell>90% CD19+, T cell>90% CD4+). Cells were cultured at 5×10^5 cells/ml in 200 μl complete RPMI, as above, in a flat bottom 96-well plate and cultured for 72 h. B cells were stimulated with anti-CD40 monoclonal antibody (10 μg/ml; BD), and T cells were stimulated with 5 μg/ml plate-bound anti-CD3 (ebiosciences) plus 5 μg/ml soluble anti-CD28 (ebiosciences). 3,4-DAA, 3-HAA, or vehicle (DMSO) was added at graded concentrations immediately prior to stimulation. 48 hours after stimulation, 100 μl culture medium was collected, and cells were pulsed with 1 μCi ^3H thymidine per well for 18 h. Cells were then harvested and plates assessed for thymidine incorporation. Each assay was performed on a minimum of 3 occasions. IFN-γ, IL-10 and IL-5 levels were assessed in the culture medium by ELISA, as above.\n(§3) Activation of purified B (FIG. 7a) and T cells (FIG. 7b) was induced by anti-CD40, and anti-CD3/CD28 respectively, and proliferation was assessed by ^3H-thymidine incorporation. […] Inhibition of proliferation was also observed when B cells were stimulated with LPS or anti-IgM. […] It was concluded that the effects of 3,4-DAA and 3-HAA on T and B cells in vitro were remarkably similar, though not identical. It is of also note that 3-HAA had no action on inflammation or allodynia, when administered therapeutically in CIA at doses of up to 400 mg/kg/day."}, "T-cells": {"tested_on": "T-cells", "assay": "Cytokine production by stimulated T cells in vitro (ELISA)", "type": "cell-based", "conditions": "anti-CD3/anti-CD28 stimulation, graded concentrations", "experimental": "as §1, §2, §3"}, "purified B cells": {"tested_on": "purified B cells", "assay": "B cell proliferation in vitro (anti-CD40, 3H-thymidine incorporation)", "type": "cell-based", "conditions": "anti-CD40 stimulation, 72 h; for IC50: B-cell, read-out: IC50 for inhibition of B cell proliferation; for B cell proliferation: varying doses", "experimental": "as §1, §2, §3"}, "[2]": {"tested_on": "draining (inguinal) lymph node cells", "assay": "Lymph node cell cytokine responses from treated CIA mice (72 h culture, ELISA)", "type": "in vivo", "experimental": "FIG. 4 is a graphical representation of the results of mice with established CIA being treated for 10 days with 3,4-DAA or vehicle control. Mice were then killed and draining (inguinal) lymph node cells were cultured for 72 h in the absence or presence of type II collagen.\nInguinal lymph nodes were excised from 3,4-DAA-treated and control mice. Alternatively, inguinal lymph nodes were removed from untreated arthritic mice (day 1-5 of arthritis) and 3,4-DAA was added in vitro. In both cases, a single cell suspension was prepared and LNC were cultured in RPMI 1640 containing FCS (10% v/v), 2-mercaptoethanol (20 μM), L-glutamine (1% w/v), penicillin (100 U/ml) and streptomycin (100 μg/ml) in the presence or absence of type II collagen (50 μg/ml). Secreted cytokines (IFN-γ, IL-5, and IL-10) were measured after 72 h. by ELISA. In brief, 96 well ELISA plates were coated with the respective capture antibody, blocked with bovine serum albumin (2% w/v), and then incubated with LNC culture supernatants overnight at 4° C. After washing, bound cytokines were detected using biotinylated detect antibodies. A standard curve was generated using known concentrations of the appropriate recombinant cytokine and the concentrations of cytokines present in culture supernatants were estimated by reference to the standard curve.\nAt the end of the experiment draining (inguinal) LNC from control and treated mice were cultured for 72 h in the presence or absence of type II collagen. IFN-γ, IL-5 and IL-10 production was measured by ELISA."}, "[3]": {"conditions": "11,484 patients with restenosis following percutaneous coronary intervention; cited from earlier work"}},
  "note": "Values joined by “and” are separate entries in the source; they are usually repeats but may differ in a detail not shown here. Equal values may be shown once.",
  "data": [
    {"smiles": "Nc1c(O)cccc1C(=O)O", "note": "[3-Hydroxyanthranilic acid]", "values": [
      {"measurement": "No. of Writhing Average", "setting": "[1]; 100 mg/kg PO", "result": 13},
      {"measurement": "% Inhibition", "setting": "[1]; 100 mg/kg PO", "result": 0, "unit": "%"},
      {"measurement": "No. of Writhing Individual", "setting": "[1]; 100 mg/kg PO", "result": "18 and 12 (2×) and 13 and 10"},
      {"measurement": "No. of Writhing Average", "setting": "[1]; 200 mg/kg PO", "result": 12},
      {"measurement": "% Inhibition", "setting": "[1]; 200 mg/kg PO", "result": 8, "unit": "%"},
      {"measurement": "No. of Writhing Individual", "setting": "[1]; 200 mg/kg PO", "result": "16 and 9 and 12 and 10 and 15"},
      {"measurement": "No. of Writhing Individual", "setting": "[1]; 400 mg/kg PO before acetic acid (0.5%, 20 ml/kg IP), 5 to 10 minute period", "result": "5 (2×) and 6 and 14 and 12"},
      {"measurement": "No. of Writhing Average", "setting": "[1]; 400 mg/kg PO", "result": 8},
      {"measurement": "% Inhibition", "setting": "[1]; 400 mg/kg PO", "result": 38, "unit": "%"},
      {"measurement": "significant analgesic activity (≧50% inhibition of writhing relative to vehicle)", "setting": "[1]; 400, 200 and 100 mg/kg PO", "result": "did not demonstrate any significant analgesic activity"},
      {"measurement": "IC50", "setting": "purified T cells", "result": 100, "unit": "µM"},
      {"measurement": "T cell proliferation", "setting": "purified T cells", "result": "dose-dependently inhibited"},
      {"measurement": "IFN-γ production by T-cells", "setting": "T-cells", "result": "dose-dependently reduced"},
      {"measurement": "IL-5 production by T-cells", "setting": "T-cells", "result": "increased"},
      {"measurement": "IL-10 production by T-cells", "setting": "T-cells", "result": "increased"},
      {"measurement": "IC50", "setting": "purified B cells", "result": 65, "unit": "µM"},
      {"measurement": "B cell proliferation", "setting": "purified B cells", "result": "dose-dependently inhibited"}
    ]},
    {"smiles": "COc1ccc(/C=C/C(=O)Nc2ccccc2C(=O)O)cc1OC", "note": "[Tranilast, 2-[[3-(3,4-dimethoxyphenyl)-1-oxo-2-propenyl]amino]benzoic acid]", "values": [
      {"measurement": "differences between the groups in cytokine production on re-stimulation with collagen", "setting": "[2]; 72 h culture in presence of type II collagen", "result": "not significant"},
      {"measurement": "IFN-γ production by lymph node cells", "setting": "[2]; mice given 400 mg/kg (b205 prints 400 mg/mouse) for 10 days, 72 h culture without collagen", "result": "significantly reduced"},
      {"measurement": "IL-10 production by lymph node cells", "setting": "[2]; mice treated for 10 days, 72 h culture", "result": "no IL-10 was detected"},
      {"measurement": "IC50", "setting": "purified T cells", "result": 28, "unit": "µM"},
      {"measurement": "T cell proliferation", "setting": "purified T cells", "result": "dose-dependently inhibited"},
      {"measurement": "IFN-γ production by T-cells", "setting": "T-cells", "result": "dose-dependently reduced"},
      {"measurement": "IL-5 production by T-cells", "setting": "T-cells", "result": "dose-dependently inhibited"},
      {"measurement": "IL-10 production by T-cells", "setting": "T-cells", "result": "dose-dependently inhibited"},
      {"measurement": "adverse cardiovascular events", "setting": "[3]", "result": "no significant increase"},
      {"measurement": "IC50", "setting": "purified B cells", "result": 73, "unit": "µM"},
      {"measurement": "B cell proliferation", "setting": "purified B cells", "result": "dose-dependently inhibited"}
    ]}
  ]
}
